These results are taken from patent US20200405868A1, “GEL-FORMING POLYPEPTIDES” (priority 2018, published 2020).

Where a SMILES comes first, the peptide text is derived from it. Bridges are numbered along the chain shown (N, C = ends). [ ]: non-standard residue; d: D form. The star is where a group is joined. Palmitoyl = CCCCCCCCCCCCCCCC(=O)*; AEEA = NCCOCCOCC(=O)O

The nature of series [1]: Compound gel-forming ability in water (visual inspection, tube tapping assay, tilted tube assay).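 On all read-outs here: peptides mixed with de-ionized water at about 22-25 °C, judged after 20 min by eye plus tube tapping (10 taps, moves counted) and 90° tilt mobility.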 The conditions noted are these: for gel formation at 11% w/w: 11% w/w in water; for gel formation at 20% w/w: 20% w/w in water; for gel formation in aqueous solution, 6% / propensity to form gels, chimeric or mutated polypeptides, 6%: 6% w/w. Type of series: physicochemical.
In series [2] the target is T1, bradykinin receptor 2 (BDKRB2) (Homo sapiens, UniProt P30411).
T1 sequence (P30411 1-391): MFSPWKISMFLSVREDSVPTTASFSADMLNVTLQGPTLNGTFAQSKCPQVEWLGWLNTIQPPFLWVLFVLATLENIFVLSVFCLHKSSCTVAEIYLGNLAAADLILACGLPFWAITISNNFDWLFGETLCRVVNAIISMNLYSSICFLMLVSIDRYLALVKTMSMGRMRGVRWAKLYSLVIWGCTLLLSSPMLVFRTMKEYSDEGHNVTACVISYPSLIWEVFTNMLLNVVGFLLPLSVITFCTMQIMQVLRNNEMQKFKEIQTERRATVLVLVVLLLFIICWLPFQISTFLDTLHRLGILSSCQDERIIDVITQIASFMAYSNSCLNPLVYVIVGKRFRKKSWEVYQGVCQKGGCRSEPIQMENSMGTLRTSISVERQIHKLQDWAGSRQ
The series is described as follows: BDKRB2 arrestin assay (Discoverx), antagonistic. Format: cell-based.
Experimental: For the Arrestin assays, PathHunter cell lines (Discoverx Inc.) were expanded from freezer stocks, and seeded in a total volume of 20 μL into white walled, 384-well microplates and incubated at 37 C for the appropriate time prior to testing. […] For antagonistic activity determination, cells were pre-incubated with antagonist followed by agonist challenge at the EC80 concentration. Intermediate dilution of sample stocks was performed to generate 5× sample in assay buffer, and 5 μL of 5× sample was added to cells and incubated at 37° C. or room temperature for 30 minutes. Vehicle concentration was 1%. Then, 5 μL of 6×EC80 agonist in assay buffer was added to the cells and incubated at 37 C or room temperature for 90 or 180 minutes.
Assay signal was generated through a single addition of 12.5 or 15 μL (50% v/v) of PathHunter Detection reagent cocktail, followed by an one hour incubation at room temperature. The microplates were read following signal generation with a PerkinElmer Envision™ instrument for chemiluminescent signal detection. The compound activity was analyzed using a CBIS data analysis suite (ChemInnovation, CA). […] For antagonistic activity assays, percentage inhibition was calculated using the following formula: % Inhibition=100%×(1−(mean RLU of test sample−mean RLU of vehicle control)/(mean RLU of EC80 control−mean RLU of vehicle control)).

The target in series [3] is kappa opioid receptor (OPRK1) (Homo sapiens, UniProt P41145). As to the kind of experiment: OPRK1 cAMP assay (Discoverx), agonistic. Format: cell-based. Here is the method:
(§1) The agonistic activities toward MC1R, MC4R, CRHR2, PTHR1, and OPRK1 were assyed with an MC1R cAMP assay, an MC4R cAMP assay, a CRHR2 cAMP assay, a PTHR1 cAMP assay and an OPRK1 cAMP assay from Discoverx Inc. (Fremont, Calif.), respectively. The antagonistic activities toward bradykinin receptor 2 (BDKRB2) and GnRH receptor (GnRHR or LHRHR) were assayed with a BDKRB2 arrestin assay and a GnRHR calcium flux assay from Discoverx, respectively.
(§2) For the analysis of Gs-coupled cAMP production, cAMP Hunter cell lines were expanded from freezer stocks, and cells were seeded in a total volume of 20 μL into white walled, 384-well microplates and incubated at 37 C for the appropriate time prior to testing. The cAMP modulation was determined using the DiscoverX HitHunter cAMP XS+ assay. For agonistic activity determination, cells were incubated with sample to induce response. Media was aspirated from cells and replaced with 15 μL 2:1 HBSS/10 mM Hepes: cAMP XS+ Ab reagent. […] The compound activity was analyzed using a CBIS data analysis suite (ChemInnovation, CA). For Gs-coupled agonistic assays, percentage activity is calculated using the following formula: % Activity=100%×(mean RLU of test sample−mean RLU of vehicle control)/(mean RLU of MAX control−mean RLU of vehicle control).

Series [4] deals with melanocortin receptor 4 (MC4R) (Homo sapiens, UniProt P32245). The series is described as follows: MC4R cAMP assay (Discoverx), agonistic. Format: cell-based. Here is the method:
as §1, §2

A further series has as its target T2, PTH receptor 1 (PTHR1) (Homo sapiens, UniProt Q03431).
T2 sequence (Q03431 27-593): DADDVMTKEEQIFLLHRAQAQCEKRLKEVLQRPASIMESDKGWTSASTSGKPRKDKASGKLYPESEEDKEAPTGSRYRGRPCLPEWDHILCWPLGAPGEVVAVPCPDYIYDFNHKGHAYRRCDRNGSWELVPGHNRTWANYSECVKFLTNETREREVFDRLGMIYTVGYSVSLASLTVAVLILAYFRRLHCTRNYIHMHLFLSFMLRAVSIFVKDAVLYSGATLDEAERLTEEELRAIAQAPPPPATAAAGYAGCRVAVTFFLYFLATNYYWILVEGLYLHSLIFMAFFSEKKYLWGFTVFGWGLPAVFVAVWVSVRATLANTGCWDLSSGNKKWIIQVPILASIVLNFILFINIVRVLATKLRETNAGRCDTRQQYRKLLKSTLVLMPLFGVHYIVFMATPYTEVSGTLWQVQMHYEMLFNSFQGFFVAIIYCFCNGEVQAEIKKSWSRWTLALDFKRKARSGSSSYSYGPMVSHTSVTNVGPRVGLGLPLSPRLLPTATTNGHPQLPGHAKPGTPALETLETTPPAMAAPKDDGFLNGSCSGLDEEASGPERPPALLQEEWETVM
As to the kind of experiment: PTHR1 cAMP assay (Discoverx), agonistic. Format: cell-based. Here is the method: as §1, §2

Sequence of kappa opioid receptor (OPRK1) (P41145 whole entry): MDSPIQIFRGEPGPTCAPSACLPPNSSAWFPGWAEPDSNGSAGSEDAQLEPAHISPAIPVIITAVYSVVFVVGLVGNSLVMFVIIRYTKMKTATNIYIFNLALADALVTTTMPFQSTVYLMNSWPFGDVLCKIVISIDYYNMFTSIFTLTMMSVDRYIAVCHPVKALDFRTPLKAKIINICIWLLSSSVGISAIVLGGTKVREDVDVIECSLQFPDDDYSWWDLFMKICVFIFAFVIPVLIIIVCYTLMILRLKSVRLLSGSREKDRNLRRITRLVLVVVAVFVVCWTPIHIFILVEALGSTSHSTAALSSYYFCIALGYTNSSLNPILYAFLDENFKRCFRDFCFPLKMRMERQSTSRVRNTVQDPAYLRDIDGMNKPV
Sequence of melanocortin receptor 4 (MC4R) (P32245 whole entry): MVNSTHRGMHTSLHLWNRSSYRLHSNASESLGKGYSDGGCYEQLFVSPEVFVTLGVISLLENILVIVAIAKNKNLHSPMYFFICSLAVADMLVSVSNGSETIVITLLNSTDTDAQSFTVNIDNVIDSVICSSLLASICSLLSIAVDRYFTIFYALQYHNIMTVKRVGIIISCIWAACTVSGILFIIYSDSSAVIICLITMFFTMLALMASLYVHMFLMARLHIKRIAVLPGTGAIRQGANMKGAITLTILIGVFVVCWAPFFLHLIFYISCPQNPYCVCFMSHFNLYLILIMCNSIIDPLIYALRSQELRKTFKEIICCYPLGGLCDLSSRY

For the molecule `N=C(N)NCCC[C@@H](N)C(=O)N[C@@H](CCCNC(=N)N)C(=O)N1CCC[C@H]1C(=O)N1C[C@H](O)C[C@H]1C(=O)NCC(=O)N[C@@H](Cc1cccs1)C(=O)N[C@@H](CO)C(=O)N1Cc2ccccc2C[C@@H]1C(=O)N1[C@H](C(=O)N[C@@H](CCCNC(=N)N)C(=O)O)C[C@@H]2CCCC[C@@H]21` [SEQ ID NO:32, (D-Arg)-Arg-Pro-Hyp-Gly-Thi-Ser-(D-Tic)-Oic-Arg, reference compound], in series [1], the “gel formation at 11% w/w” value was “does not form gel” and the “gel formation at 20% w/w” value is on record as “does not form gel”. In addition, the “gel formation at 30% w/w” value in series [1] (30% w/w in water) is “does not form gel”. Further, the “Physical property at 11% w/w” value in series [1] (Table 1, 11% w/w in aqueous solution, room temperature) is listed as “AS/IS”. Further, the “gel formation in aqueous solution, 11%” value in series [1] (Table 3, 11% w/w) was “AS/IS (AS/IS for aqueous solution or insoluble)”. In addition, the “gel formation in aqueous solution, 20%” value in series [1] (Table 3, 20% w/w) is on record as “AS/IS (AS/IS for aqueous solution or insoluble)”. Also, the “gel formation in aqueous solution, 30%” value in series [1] (Table 3, 30% w/w) is on record as “AS/IS (AS/IS for aqueous solution or insoluble)”. Moreover, in series [1] (Table 5, 11% w/w), the “propensity to form gels, wild-type counterparts, 11%” value is given as “AS/IS”. In addition, the “propensity to form gels, wild-type counterparts, 20%” value in series [1] (Table 5, 20% w/w) was “AS/IS”. Also, in series [2], the “Max Activity % of positive control” value was 100 % of positive control.

`CCCCCCCCCCCCCCCC(=O)N[C@@H](CO)C(=O)N[C@@H](CO)C(=O)N1CCC[C@H]1C(=O)N[C@@H](Cc1c[nH]cn1)C(=O)N[C@@H](CO)C(=O)N[C@@H](Cc1ccc(O)cc1)C(=O)NCCOCCOCC(=O)N[C@H](Cc1ccccc1)C(=O)N[C@H](Cc1ccccc1)C(=O)N[C@@H](Cc1c[nH]c2ccccc12)C(=O)N[C@H](CCCNC(=N)N)C(=O)O` [SEQ ID NO:214, Pal-SSPHSY-miniPEG-(D-Phe)-(D-Phe)-Trp-(D-Arg)] (Palmitoyl-SSPHSY[AEEA][dF][dF]W[dR]-OH; N-terminus and C-terminus assumed): the “gel formation at 3% w/w” value in series [1] (3% w/w in water) is reported as “liquid gel”. Also, the “gel formation at 6% w/w” value in series [1] (6% w/w in water) is given as “semisolid gel”. For the same molecule, in series [1], the “gel formation at 11% w/w” value is reported as “semisolid gel”. For the same molecule, the “gel formation in aqueous solution, 6%” value in series [1] (Table 3) is on record as “SS (SS for semisolid gel)”. Further, the “gel formation in aqueous solution, 11%” value in series [1] (Table 3, 11% w/w) is recorded as “SS (SS for semisolid gel)”. Also, the “propensity to form gels, chimeric or mutated polypeptides, 6%” value in series [1] (Table 5) was “SS (An ability to form semisolid gel is represented by an SS)”. In addition, in series [1] (Table 5, 11% w/w), the “propensity to form gels, chimeric or mutated polypeptides, 11%” value is recorded as “SS (An ability to form semisolid gel is represented by an SS)”. For the same molecule, the “Max Activity % of positive control” value in series [3] is given as 62 % of positive control.

In the case of `CCCCCCCCCCCCCCCC(=O)N[C@@H](Cc1c[nH]cn1)C(=O)N[C@@H](CO)C(=O)N[C@@H](Cc1ccc(O)cc1)C(=O)N[C@@H](CCCNC(=N)N)C(=O)N[C@H]1CSSC[C@@H](C(N)=O)NC(=O)[C@H](Cc2c[nH]c3ccccc23)NC(=O)[C@H](CCCNC(=N)N)NC(=O)[C@@H](Cc2ccccc2)NC(=O)[C@H](Cc2c[nH]cn2)NC(=O)[C@@H](C)NC1=O` [SEQ ID NO:228, Pal-HSYRC-(D-Ala)-H-(D-Phe)-RWC-NH2] (Palmitoyl-HSYRC[dA]H[dF]RWC-NH2; disulfide 5-11 (inferred)), in series [4], the “Max Activity % of positive control” value was 115 % of positive control.

Take `CCCCCCCCCCCCCCCC(=O)N[C@@H](Cc1c[nH]cn1)C(=O)N[C@@H](CO)C(=O)N[C@@H](Cc1ccc(O)cc1)C(=O)N[C@@H](CO)C(=O)N[C@@H](CCC(=O)O)C(=O)N[C@H](C(=O)N[C@@H](CCC(N)=O)C(=O)N[C@@H](CC(C)C)C(=O)N[C@@H](CCSC)C(=O)N[C@@H](Cc1c[nH]cn1)C(=O)N[C@@H](CC(N)=O)C(=O)N[C@@H](CC(C)C)C(=O)NCC(=O)N[C@@H](CCCCN)C(=O)N[C@@H](Cc1c[nH]cn1)C(=O)N[C@@H](CC(C)C)C(=O)N[C@@H](CC(N)=O)C(=O)N[C@@H](CO)C(=O)N[C@@H](CCSC)C(=O)N[C@@H](CCC(=O)O)C(=O)N[C@@H](CCCNC(=N)N)C(=O)N[C@H](C(=O)N[C@@H](CCC(=O)O)C(=O)N[C@@H](Cc1c[nH]c2ccccc12)C(=O)N[C@@H](CC(C)C)C(=O)N[C@@H](CCCNC(=N)N)C(=O)N[C@@H](CCCCN)C(=O)N[C@@H](CCCCN)C(=O)N[C@@H](CC(C)C)C(=O)N[C@@H](CCC(N)=O)C(=O)N[C@@H](CC(=O)O)C(=O)N[C@H](C(=O)N[C@@H](Cc1c[nH]cn1)C(=O)N[C@@H](CC(N)=O)C(=O)N[C@@H](Cc1ccccc1)C(=O)O)C(C)C)C(C)C)[C@@H](C)CC` [SEQ ID NO:232] (Palmitoyl-HSYSEIQLMHNLGKHLNSMERVEWLRKKLQDVHNF-OH; C-terminus assumed): the “Max Activity % of positive control” value at PTH receptor 1 (PTHR1) was 59 % of positive control. For the same molecule, in series [1], the “gel formation at 11% w/w” value is listed as “liquid gel” and the “gel formation at 20% w/w” value is given as “semisolid gel”. The “gel formation in aqueous solution, 20%” value in series [1] (Table 3, 20% w/w) is on record as “SS (SS for semisolid gel)”. Further, in series [1] (Table 5, 20% w/w), the “propensity to form gels, chimeric or mutated polypeptides, 20%” value is on record as “SS (An ability to form semisolid gel is represented by an SS)”.

`CCCCCCCCCCCCCCCC(=O)N[C@@H](Cc1c[nH]cn1)C(=O)N[C@@H](CO)C(=O)N[C@@H](Cc1ccc(O)cc1)C(=O)N[C@H](CCCNC(=N)N)C(=O)N[C@@H](CCCNC(=N)N)C(=O)N1CCC[C@H]1C(=O)N1C[C@H](O)C[C@H]1C(=O)NCC(=O)N[C@@H](Cc1cccs1)C(=O)N[C@@H](CO)C(=O)N1Cc2ccccc2C[C@@H]1C(=O)N1[C@H](C(=O)N[C@@H](CCCNC(=N)N)C(N)=O)C[C@@H]2CCCC[C@@H]21` [SEQ ID NO:234, Pal-HSY-(D-Arg)-Arg-Pro-Hyp-Gly-Thi-Ser-(D-Tic)-Oic-Arg-NH2]: in series [1], the “gel formation at 20% w/w” value is reported as “semisolid gel”. The “gel formation in aqueous solution, 6%” value in series [1] (Table 3) is “AS/IS (AS/IS for aqueous solution or insoluble)”. Further, the “gel formation in aqueous solution, 11%” value in series [1] (Table 3, 11% w/w) was “AS/IS (AS/IS for aqueous solution or insoluble)”. Also, the “gel formation in aqueous solution, 20%” value in series [1] (Table 3, 20% w/w) was “SS (SS for semisolid gel)”. Besides, in series [1] (Table 5), the “propensity to form gels, chimeric or mutated polypeptides, 6%” value is on record as “AS/IS”. For the same molecule, in series [1] (Table 5, 11% w/w), the “propensity to form gels, chimeric or mutated polypeptides, 11%” value was “AS/IS”. In addition, in series [1] (Table 5, 20% w/w), the “propensity to form gels, chimeric or mutated polypeptides, 20%” value is “SS (An ability to form semisolid gel is represented by an SS)”. Also, in series [2], the “Max Activity % of positive control” value was 112 % of positive control. In series [2] (bradykinin-stimulated), the midpoint of inhibition, the IC50, lay at 53.3 nM.

Consider PTH (1-34) [reference compound], for which the “Max Activity % of positive control” value on PTH receptor 1 (PTHR1) was 101 % of positive control.
